Measured values taken from patent US20260078122A1, “INDAZOLE COMPOUNDS AS PKMYT1 KINASE INHIBITORS” (Hoffmann-La Roche Inc., priority 2023, published 2026).

System: not listed separately
Test: Human microsome stability assay
Conditions: 1 μM compound, 0.5 mg/mL liver microsomal protein, 1 mM NADPH, 37° C., 0-30 minutes

COc1c(C)cnc2c(-c3ccc(F)c4[nH]ncc34)c(N)c(=O)[nH]c12 [Example 051, 3-Amino-4-(7-fluoro-1H-indazol-4-yl)-8-methoxy-7-methyl-1H-1,5-naphthyridin-2-one] and Cc1cnc2c(-c3ccc(F)c4[nH]ncc34)c(N)c(=O)[nH]c2c1Cl [Example 053, 3-Amino-8-chloro-4-(7-fluoro-1H-indazol-4-yl)-7-methyl-1H-1,5-naphthyridin-2-one] are within 1.5-fold of each other in “Clearance of Human microsome” value: 6.15 mL/min/kg for the first, 8.09 mL/min/kg for the second.

Nc1c(-c2ccc(F)c3[nH]ncc23)c2ncc(-c3nccs3)cc2[nH]c1=O [Example 016, 3-Amino-4-(7-fluoro-1H-indazol-4-yl)-7-thiazol-2-yl-1H-1,5-naphthyridin-2-one] and Nc1c(-c2ccc(F)c3[nH]ncc23)c2ncc(-c3ccn[nH]3)cc2[nH]c1=O [Example 009, 3-Amino-4-(7-fluoro-1H-indazol-4-yl)-7-(1H-pyrazol-5-yl)-1H-1,5-naphthyridin-2-one] are within 1.5-fold of each other in “Clearance of Human microsome” value: 8.06 mL/min/kg for the first, 6.15 mL/min/kg for the second.

Cc1cc2[nH]c(=O)c(N)c(-c3ccc(F)c4[nH]ncc34)c2nc1C(=O)O [Example 089, 7-Amino-8-(7-fluoro-1H-indazol-4-yl)-3-methyl-6-oxo-5H-1,5-naphthyridine-2-carboxylic acid] and Cc1cc2[nH]c(=O)c(N)c(-c3ccc(F)c4[nH]ncc34)c2nc1NC(C)C [Example 023, 3-Amino-4-(7-fluoro-1H-indazol-4-yl)-6-(isopropylamino)-7-methyl-1H-1,5-naphthyridin-2-one] are within 1.5-fold of each other in “Clearance of Human microsome” value: 6.15 mL/min/kg for the first, 8.58 mL/min/kg for the second.

Nc1c(-c2ccc(F)c3[nH]ncc23)c2nccc(Cl)c2[nH]c1=O [Example 050, 3-Amino-8-chloro-4-(7-fluoro-1H-indazol-4-yl)-1H-1,5-naphthyridin-2-one] and Nc1c(-c2ccc(F)c3[nH]ncc23)c2ncc(F)cc2[nH]c1=O [Example 004, 3-Amino-7-fluoro-4-(7-fluoro-1H-indazol-4-y1)-1H-1,5-naphthyridin-2-one] are the same in “Clearance of Human microsome” value: 6.15 mL/min/kg for the first, 6.15 mL/min/kg for the second.

Nc1c(-c2ccc(F)c3[nH]ncc23)c2ncc(N3CCOCC3)cc2[nH]c1=O [Example 019, 3-Amino-4-(7-fluoro-1H-indazol-4-yl)-7-morpholino-1H-1,5-naphthyridin-2-one] and COc1cnc2c(-c3ccc(F)c4[nH]ncc34)c(N)c(=O)[nH]c2c1 [Example 006, 3-Amino-4-(7-fluoro-1H-indazol-4-yl)-7-methoxy-1H-1,5-naphthyridin-2-one] are the same in “Clearance of Human microsome” value: 6.15 mL/min/kg for the first, 6.15 mL/min/kg for the second.

Nc1c(-c2ccc(F)c3[nH]ncc23)c2ncc(-c3ccnnc3)cc2[nH]c1=O [Example 012, 3-Amino-4-(7-fluoro-1H-indazol-4-yl)-7-pyridazin-4-yl-1H-1,5-naphthyridin-2-one] and Cn1cncc1-c1cnc2c(-c3ccc(F)c4[nH]ncc34)c(N)c(=O)[nH]c2c1 [Example 008, 3-Amino-4-(7-fluoro-1H-indazol-4-yl)-7-(3-methylimidazol-4-yl)-1H-1,5-naphthyridin-2-one] are the same in “Clearance of Human microsome” value: 6.15 mL/min/kg for the first, 6.15 mL/min/kg for the second.

In the case of Nc1c(-c2cccc3[nH]ncc23)c2ncc(C3CC3)cc2[nH]c1=O [Example 034, 3-Amino-7-cyclopropyl-4-(1H-indazol-4-yl)-1H-1,5-naphthyridin-2-one], the “Clearance of Human microsome” value is reported as 6.15 mL/min/kg.

Target: T1, recombinant human Myt1 (full length PKMYT1) (Homo sapiens, UniProt Q99640)
T1 sequence (Q99640 1-499): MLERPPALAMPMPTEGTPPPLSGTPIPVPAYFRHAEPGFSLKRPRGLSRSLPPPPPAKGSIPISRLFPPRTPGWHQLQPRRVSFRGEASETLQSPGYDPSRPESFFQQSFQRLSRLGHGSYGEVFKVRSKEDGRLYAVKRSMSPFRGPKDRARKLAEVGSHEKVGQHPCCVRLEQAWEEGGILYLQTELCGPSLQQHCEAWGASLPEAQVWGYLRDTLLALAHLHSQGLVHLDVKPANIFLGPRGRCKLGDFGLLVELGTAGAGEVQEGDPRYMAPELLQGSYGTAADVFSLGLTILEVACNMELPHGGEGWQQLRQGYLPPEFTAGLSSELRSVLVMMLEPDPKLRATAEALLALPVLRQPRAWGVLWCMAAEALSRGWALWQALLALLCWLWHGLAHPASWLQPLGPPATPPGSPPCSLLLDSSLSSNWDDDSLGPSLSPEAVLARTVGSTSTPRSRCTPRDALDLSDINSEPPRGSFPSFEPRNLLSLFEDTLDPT
Test: ADP-Glo assay (Myt1 kinase activity)
Conditions: not given

First: Cc1cnc2c(-c3ccc(F)c4[nH]ncc34)c(N)c(=O)[nH]c2c1C(F)F [Example 145, 3-Amino-8-(difluoromethyl)-4-(7-fluoro-1H-indazol-4-yl)-7-methyl-1H-1,5-naphthyridin-2-one]
Second: C=C(C)c1cnc2c(-c3ccc(F)c4[nH]ncc34)c(N)c(=O)[nH]c2c1C [Example 125, 3-Amino-4-(7-fluoro-1H-indazol-4-yl)-7-isopropenyl-8-methyl-1H-1,5-naphthyridin-2-one]
The IC50 of the first is higher: 18.5 nM for the first, < 10 nM for the second. The second is the more potent here.

Going from Cc1cc2[nH]c(=O)c(N)c(-c3ccc(F)c4[nH]ncc34)c2nc1OCC(C)(C)O [Example 078, 3-Amino-4-(7-fluoro-1H-indazol-4-yl)-6-(2-hydroxy-2-methyl-propoxy)-7-methyl-1H-1,5-naphthyridin-2-one] to COc1nc2c(-c3ccc(F)c4[nH]ncc34)c(N)c(=O)[nH]c2cc1C [Example 060, 3-Amino-4-(7-fluoro-1H-indazol-4-yl)-6-methoxy-7-methyl-1H-1,5-naphthyridin-2-one], the IC50 falls from 17.2 nM to < 10 nM.

Cc1c(OC2CCC2)cnc2c(-c3ccc(F)c4[nH]ncc34)c(N)c(=O)[nH]c12 [Example 139, 3-Amino-7-(cyclobutoxy)-4-(7-fluoro-1H-indazol-4-yl)-8-methyl-1H-1,5-naphthyridin-2-one] and Cc1c([C@@H]2C[C@H]2C)cnc2c(-c3ccc(F)c4[nH]ncc34)c(N)c(=O)[nH]c12 (racemic) [Example 144, 3-Amino-4-(7-fluoro-1H-indazol-4-yl)-8-methyl-7-[rac-(1R,2R)-2-methylcyclopropyl]-1H-1,5-naphthyridin-2-one] are within 1.5-fold of each other in IC50: 13.2 nM for the first, 11.4 nM for the second.

COC(=O)c1nc2c(-c3ccc(F)c4[nH]ncc34)c(N)c(=O)[nH]c2cc1C [Example 087, Methyl 7-amino-8-(7-fluoro-1H-indazol-4-yl)-3-methyl-6-oxo-5H-1,5-naphthyridine-2-carboxylate] and Cc1cc2[nH]c(=O)c(N)c(-c3ccc(F)c4[nH]ncc34)c2nc1Br [Example 21, 3-Amino-6-bromo-4-(7-fluoro-1H-indazol-4-yl)-7-methyl-1H-1,5-naphthyridin-2-one] are within 1.5-fold of each other in IC50: 12.3 nM for the first, 10.3 nM for the second.

First: Cc1nc(Cl)cc2c(-c3ccc(F)c4[nH]ncc34)c(N)c(=O)[nH]c12 [Example 175, 3-Amino-6-chloro-4-(7-fluoro-1H-indazol-4-yl)-8-methyl-1H-1,7-naphthyridin-2-one]
Second: Cc1nc2c(-c3ccc(F)c4[nH]ncc34)c(N)c(=O)[nH]c2c(Cl)c1C [Example 57, 3-Amino-8-chloro-4-(7-fluoro-1H-indazol-4-yl)-6,7-dimethyl-1H-1,5-naphthyridin-2-one]
The IC50 of the first is lower: < 10 nM for the first, 11.7 nM for the second.

First: Cc1cc2[nH]c(=O)c(N)c(-c3ccc(F)c4[nH]ncc34)c2nc1OC1CC(C#N)C1 (centres unmarked) [Example 079, 3-[[7-Amino-8-(7-fluoro-1H-indazol-4-yl)-3-methyl-6-oxo-5H-1,5-naphthyridin-2-yl]oxy]cyclobutanecarbonitrile]
Second: Cc1cc2[nH]c(=O)c(N)c(-c3ccc(F)c4[nH]ncc34)c2nc1Cl [Example 3, 3-Amino-6-chloro-4-(7-fluoro-1H-indazol-4-yl)-7-methyl-1H-1,5-naphthyridin-2-one]
The IC50 of the first is higher: 17.8 nM for the first, < 10 nM for the second. The second is the more potent here.

Going from Nc1c(-c2ccc(F)c3[nH]ncc23)c2ncc(-c3ccn[nH]3)cc2[nH]c1=O [Example 9, 3-Amino-4-(7-fluoro-1H-indazol-4-yl)-7-(1H-pyrazol-5-yl)-1H-1,5-naphthyridin-2-one] to Nc1c(-c2ccc(F)c3[nH]ncc23)c2ncc(-c3ccc(F)cn3)cc2[nH]c1=O [Example 14], the IC50 rises from 16.1 nM to 44.6 nM (2.8-fold). The first is the more potent here.

Cc1cc2[nH]c(=O)c(N)c(-c3ccc(F)c4[nH]ncc34)c2nc1N1CC2(COC2)C1 [Example 26, 3-Amino-4-(7-fluoro-1H-indazol-4-yl)-7-methyl-6-(2-oxa-6-azaspiro[3.3]heptan-6-yl)-1H-1,5-naphthyridin-2-one] and Cc1cc2[nH]c(=O)c(N)c(-c3ccc(F)c4[nH]ncc34)c2nc1N1CCN(C)CC1 [Example 22, 3-Amino-4-(7-fluoro-1H-indazol-4-yl)-7-methyl-6-(4-methylpiperazin-1-yl)-1H-1,5-naphthyridin-2-one] cannot be ordered by IC50: < 10 nM for the first, < 10 nM for the second.

Nc1c(-c2ccc(F)c3[nH]ncc23)c2nccc(Cl)c2[nH]c1=O [Example 50, 3-Amino-8-chloro-4-(7-fluoro-1H-indazol-4-yl)-1H-1,5-naphthyridin-2-one] and C=Cc1nc2c(-c3ccc(F)c4[nH]ncc34)c(N)c(=O)[nH]c2c(Cl)c1C [Example 113, 3-Amino-8-chloro-4-(7-fluoro-1H-indazol-4-yl)-7-methyl-6-vinyl-1H-1,5-naphthyridin-2-one] cannot be ordered by IC50: < 10 nM for the first, < 10 nM for the second.

Cc1c(C2CC2F)cnc2c(-c3ccc(F)c4[nH]ncc34)c(N)c(=O)[nH]c12 (centres unmarked) [Example 132, 3-Amino-7-(2-fluorocyclopropyl)-4-(7-fluoro-1H-indazol-4-yl)-8-methyl-1H-1,5-naphthyridin-2-one] and Cc1c(C2CC2)nc2c(-c3ccc(F)c4[nH]ncc34)c(N)c(=O)[nH]c2c1Cl [Example 109, 3-Amino-8-chloro-6-cyclopropyl-4-(7-fluoro-1H-indazol-4-yl)-7-methyl-1H-1,5-naphthyridin-2-one] cannot be ordered by IC50: < 10 nM for the first, < 10 nM for the second.

Going from Nc1c(-c2ccc(F)c3[nH]ncc23)c2nc(C3CC3)c(Cl)cc2[nH]c1=O [Example 55, 3-Amino-7-chloro-6-cyclopropyl-4-(7-fluoro-1H-indazol-4-yl)-1H-1,5-naphthyridin-2-one] to Cc1ncc(OC(F)(F)F)c2c(-c3ccc(F)c4[nH]ncc34)c(N)c(=O)[nH]c12 [Example 192, 3-Amino-4-(7-fluoro-1H-indazol-4-yl)-8-methyl-5-(trifluoromethoxy)-1H-1,7-naphthyridin-2-one], the IC50 falls from 12.4 nM to < 10 nM.
